The structures appear in SMILES notation. Values after ≈ are worked out from the molar mass of the structure shown. Active and inactive are the calls of the source. No cut-off for these calls is given here.

The values below come from ChEMBL document CHEMBL1149066, “Esperamicin P, the tetrasulfide analog of esperamicin A1” (J Nat Prod, 1994).

Test [1] relates to P388. The experiment in a line: Antitumor activity against mouse P388 cells in iv dosed in vivo system. Type of test: functional, organism-based.
The subject of the next test is HCT-116. The experiment in a line: Cytotoxicity against human HCT116 cells. Type of test: functional, cell-based.
Another test relates to Proteus vulgaris. The experiment in a line: Antimicrobial activity against Proteus vulgaris A21559 by serial twofold dilution method. Type of test: functional.
Test [2] relates to Escherichia coli. The experiment in a line: Antimicrobial activity against Escherichia coli A20697 by serial twofold dilution method. It is filed as functional.
Test [3] deals with Staphylococcus aureus. Description: Antimicrobial activity against Staphylococcus aureus A9537 by serial twofold dilution method. Type of test: functional.
Test [4] has as its system Staphylococcus aureus. The experiment in a line: Antimicrobial activity against Staphylococcus aureus A24407 by serial twofold dilution method. Type of test: functional.
For test [5], the system named is Enterococcus faecalis. Description: Antimicrobial activity against Enterococcus faecalis A25708 by serial twofold dilution method. It is filed as functional.
Test [6] has as its system Pseudomonas aeruginosa. Description: Antimicrobial activity against Pseudomonas aeruginosa A20235 by serial twofold dilution method. Type of test: functional.
Test [7] deals with Escherichia coli. Description: Antimicrobial activity against Escherichia coli A9751 by serial twofold dilution method. Type of test: functional.
The test system of test [8] is Pseudomonas aeruginosa. Description: Antimicrobial activity against Pseudomonas aeruginosa A9843 by serial twofold dilution method. It is filed as functional.
The subject of the next test is B16. Description: Cytotoxicity against mouse B16-PRIM cells. Type of test: functional, cell-based.
Test [9] in a line: Cytotoxicity against human HCT/VP35 cells. Type of test: functional, cell-based.
The test system of test [10] is Enterococcus faecalis. Description: Antimicrobial activity against Enterococcus faecalis A20688 by serial twofold dilution method. It is filed as functional.
The test system of test [11] is Escherichia coli. The experiment in a line: Antimicrobial activity against Escherichia coli A15119 by serial twofold dilution method. It is filed as functional.
The test system of test [12] is Staphylococcus aureus. Description: Antimicrobial activity against Staphylococcus aureus A20698 by serial twofold dilution method. It is filed as functional.
Test [13] has as its system Klebsiella pneumoniae. Description: Antimicrobial activity against Klebsiella pneumoniae A9664 by serial twofold dilution method. Type of test: functional.
Test [14] has as its system A549. Description: Cytotoxicity against human A549 cells. It is filed as functional, cell-based.
Test [15] deals with P388. The experiment in a line: In vivo antitumor activity against mouse P388 cells at 1 to 3 ug/kg, ip. Type of test: functional.
For test [16], the system named is Klebsiella pneumoniae. Description: Antimicrobial activity against Klebsiella pneumoniae A20468 by serial twofold dilution method. Type of test: functional.
In test [17] the test system is A549. Description: Cytotoxicity against […]-resistant human A549 cells. It is filed as functional, cell-based.
Test [18] concerns Enterococcus faecalis. The experiment in a line: Antimicrobial activity against Enterococcus faecalis A25707 by serial twofold dilution method. Type of test: functional.

For the molecule `C=C(OC)C(=O)Nc1cc(OC)c(OC)cc1C(=O)O[C@H]1C[C@H](O[C@@H]2C(=O)C(NC(=O)OC)=C3/C(=C\CSSSC)[C@]2(O)C#C/C=C\C#C[C@@H]3O[C@@H]2O[C@H](C)[C@@H](NO[C@H]3C[C@H](O)[C@H](SC)[C@@H](C)O3)[C@H](O)[C@H]2O[C@H]2C[C@H](OC)[C@@H](NC(C)C)CO2)O[C@@H](C)[C@H]1O`, the result in the test on P388 [1] was Active.
For orientation: IC50 means the point on the concentration scale where inhibition reaches its midpoint. As usually defined, the MIC is the lowest concentration found to suppress growth. Higher therefore signals a need for much substance. For orientation: T/C means the ratio of treated to control. For `C=C(OC)C(=O)Nc1cc(OC)c(OC)cc1C(=O)O[C@H]1C[C@H](O[C@@H]2C(=O)C(NC(=O)OC)=C3/C(=C\CSSSSC)[C@]2(O)C#C/C=C\C#C[C@@H]3O[C@@H]2O[C@H](C)[C@@H](NO[C@H]3C[C@H](O)[C@H](SC)[C@@H](C)O3)[C@H](O)[C@H]2O[C@H]2C[C@H](OC)[C@@H](NC(C)C)CO2)O[C@@H](C)[C@H]1O` [ESPERAMICIN P], the IC50 is less than 0.002 µg/mL with HCT-116; more than 0.002 µg/mL with B16; less than 0.002 µg/mL in test [9]; 0.01 µg/mL (≈ 7.37 nM) in the test on A549 [14]; 0.01 µg/mL (≈ 7.37 nM) in the test with A549 [17]. Moreover, the MIC against Proteus vulgaris is 0.13 µg/mL (≈ 95.8 nM); in the test with Escherichia coli [2], 0.25 µg/mL (≈ 184 nM); with Staphylococcus aureus [3] it was 0.001 µg/mL (≈ 0.737 nM); in the test with Staphylococcus aureus [4], 0.001 µg/mL (≈ 0.737 nM); in the test with Enterococcus faecalis [5], 0.002 µg/mL (≈ 1.47 nM); in the test on Pseudomonas aeruginosa [6], 0.13 µg/mL (≈ 95.8 nM). In addition, the minimum inhibitory concentration (MIC) against Escherichia coli [7] came to 0.016 µg/mL (≈ 11.8 nM); in the test with Pseudomonas aeruginosa [8] it was 0.25 µg/mL (≈ 184 nM); with Enterococcus faecalis [10], 0.002 µg/mL (≈ 1.47 nM); against Escherichia coli [11], 0.25 µg/mL (≈ 184 nM); with Staphylococcus aureus [12], 0.001 µg/mL (≈ 0.737 nM); in the test on Klebsiella pneumoniae [13], 1 µg/mL (≈ 737 nM). The MIC is 1 µg/mL (≈ 737 nM) against Klebsiella pneumoniae [16] and 0.002 µg/mL (≈ 1.47 nM) against Enterococcus faecalis [18]. Moreover, in the test on P388 [1], the result was inactive. Besides, in the test on P388 [15], the T/C stood at 145%.
